Experimental data published in patent US5214034A, “Catechol derivatives, and preventive and remedial preparations for regressive disorders in the central nervous system containing the same” (priority 1986, dated 1993).
Read-outs that look alike come from different tables or passages of the source.

Key:
[1] = test system: production and secretion of NGF on L-M cells; test: Promoting action for the production and secretion of NGF on L-M cells of mouse (ELISA); format: cell-based; details: Mus musculus
Description: Catecholamines have also been found in a relatively high concentration to accelerate these functions without being mediated by adrenergic receptors [Y. Furukawa et al., J. Biol. Chem., 261, 6039-6047 (1986)].
The compound having a high activity in Table 1, that is, the catechol derivative having a n-alkyl group in the 3 or 4 position on the ring has been observed an acute cell toxicity in higher concentrations. The toxicity was considered the result of two hydroxyl groups in the catechol structure. Then the hydroxyl groups were esterified or etherified and the resulting derivative was examined the effect on the activity for the production and secretion of NGF.
The experiment was performed according to the procedures of Y. Furukawa et al. which is described in J. Bis Chem., 261, 6039-6047 (1986).
The medium was cultured for 3 days at a temperature of 37° C. After completing the confluency (about 10^6 cells/well), the medium was changed to Medium 199 (0.5 ml/well) containing 0.5% bovine serum albumin (Fraction V, a product of Armour Co.). The sample of the derivative is contained in the medium at a prescribed concentration as illustrated in the Tables.

[2] = test system: production and secretion of NGF in brain astroglial cells; test: Promoting activity for the production and secretion of NGF in brain astroglial cells of mouse (ELISA)
Protocol: The experiment was performed by inducing the astroglial cells from mouse forebrain to culture system according to the procedures of S. Furukawa et al. which is described in Biochem. Biophys. Res. Commun., 136, 57-63 (1986).
That is, forebrains of 8-day old mice were dissected out and cut into small pieces. […] Cells and cell clamps were recovered by centrifugation at 200 xg for 5 minutes. They were cultured in Dulbecco modified Eagle's medium (a product of Gibco Co. hereinafter abbreviated as DMEM) containing 10% of fetal calf serum, […] of penicillin, and 50 μg/ml of streptomycin, for 10 to 14 days with medium changes every 3 days. After completing confluency, the cells were dissociated by trypsin treatment and recultured in new culture flasks. This procedure was repeated further twice and more. […] The cells will hereinafter be referred to as astroglial cells.
Astroglial cells were innoculated in 24-well plates having a well surface area of 2.1 cm^2 (a product of Falcon Co.) at a cell density of about 3×10^4 cells/well and cultured for 3 days in DMEM . medium supplemented with 10% of fetal calf serum. After completing confluency about 10^7 cells/well), the medium was changed to DMEM medium (0.5 ml/well) supplemented with 0.5% of bovine serum albumin ((fraction V) and cultured for 3 days. The culture was further continued with medium changes every 3 days. After cells were practically synchronized in the quiscent stage, the medium was changed to 0.5 ml of the medium supplemented with 0.5% of bovine serum albumin and containing a prescribed concentration of test sample as illustrated in Tables. […] Data are expressed as fold increase in NGF content over that in the absence of the test sample. […] Data are presented as means ±SE of four determinations.

[3] = Acute toxicity (LD50); details: mouse, in vivo
Protocol: The catechol derivative having normal type saturated lower alkyl groups on the ring was administered by intravenous injection (i.v.), intraperitoneal injection (i.p.) or oral route (p.o.) to male ddy mice of 4-week old. The LD50 values (mg/kg) were measured by an ordinary method.

[4] = test system: NGF; test: NGF production in the central nervous system of normal rats by intraperitoneal injection (NGF content of brain tissue, ELISA); format: in vivo, rat (Wistar male); details: Table 7, i.p., three times every other day; for NGF content after 48 hr.: 48 hours after final administration; for NGF content after 7 days: 7 days after final administration
Protocol: The derivative (A), e.g. R=Two H, R1 =H and R2 =n-propyl (hereinafter referred to as 4-n-propylcatechol), was administered to normal rats by intraperitoneal injection, and the effect was examined.
4-n-Propylcatechol was administered by intraperitoneal injection 4 times every other day in a dosage of 5 mg/kg. The rats were killed two days after the final administration. The NGF content of each parts in brain was measured. The content was compared with those of control group which was administered saline alone.
A variety of the derivative was administered three times every other day. The content of NGF in the forebrain after 48 hours and 7 days from the final administration was measured and illustrated in Table 7.
Wistar male rats (9-10-week old, 200-250 g of weight) were intraperitoneally injected with the test derivative in a volume of 0.5 ml as a saline solution, emulsion or suspension. Dose and administration times were the same as above. The rats were killed by a hard spinal blow two days after the final administration. Each parts of brain were dissected and subjected to the following treatment under ice cooling.
Each parts of brain were weighed and homogenized for 30 strokes by a Dounce type homogenizer in a homogenization buffer (0.1 M Tris-HCl, containing 2% bovine serum albumin fraction V, 2% gelatin, 1.0 M NaCl, 0.02% NaN3, 2 mM EDTA and 2.6 kiu/ml of aprotinin, pH 7.6) at a concentration of 10% (W/V) (only septum 5% (W/V)). Each homogenate was centrifuged at 100,000 xg for 10 minutes, and 50 μl of supernatant was added with the same amount of a dilution buffer (0.1 M Tris-HCl containing 2% bovine serum albumin fraction V, 0.05% NaN3 and 20 mM CaCl2, pH 7.6). Determination was conducted in accordance with a method of S. Furukawa et al. by using a high sensitivity ELISA system on 8-NGF which was described in J. Neurochem., 40, 734-744 (1983). Lower limit of determination is 0.25 pg/ml. Data are indicated as a mean value ±SE on the NGF content of tissue (pg/mg wet tissue) of five rats.

[5] = 24 h, read-out: Ratio of NGF increase
[6] = 24 h, read-out: Ratio of NGF increase, Table 3, 0.10 mM, 24 hours, mean ± SE of four determinations
[7] = 24 h, read-out: Ratio of NGF increase, Table 3, 0.25 mM, 24 hours, mean ± SE of four determinations
[8] = ip, intraperitoneal injection, read-out: LD50 i.p.
[9] = intravenous injection, read-out: LD50 i.v.
[10] = oral route, read-out: LD50 p.o.
[11] = 24 h, read-out: Ratio of NGF increase, 24-hr culture
[12] = 48 h, read-out: Ratio of NGF increase, 48-hr culture

SMILES | fold induction at 30 µM [1, 5] | fold induction at 100 µM [1, 5] | fold induction at 100 µM [2, 6] | fold induction at 250 µM [2, 7] | LD50 [3, 8] | LD50 [3, 9] | LD50 [3, 10] | NGF content after 48 hr. [4] | NGF content after 7 days [4] | LD50 ([3]; ip, read-out: LD50 i.p.) | LD50 ([3]; iv, read-out: LD50 i.v.) | LD50 ([3]; po, read-out: LD50 p.o.) | fold induction at 30 µM [1, 11] | fold induction at 150 µM [1, 11] | fold induction at 30 µM [1, 12] | fold induction at 150 µM [1, 12] | fold induction at 100 µM ([2]; 24 h, read-out: Ratio of NGF increase, 24-hr culture, Table 4, 0.10 mM, 24-hr culture) | fold induction at 250 µM ([2]; 24 h, read-out: Ratio of NGF increase, 24-hr culture, Table 4, 0.25 mM, 24-hr culture) | fold induction at 100 µM ([2]; 48 h, read-out: Ratio of NGF increase, 48-hr culture, Table 4, 0.10 mM, 48-hr culture) | fold induction at 250 µM ([2]; 48 h, read-out: Ratio of NGF increase, 48-hr culture, Table 4, 0.25 mM, 48-hr culture)
CCc1ccc(O)c(O)c1 [R = Two H, R1 = H, R2 = Ethyl, 4-ethylcatechol] | 10 ± 0.97 | 12.1 ± 1.09 | 55.2 ± 3.24 | 64.7 ± 4.26 | > 300 mg/kg | > 75 mg/kg | > 1000 mg/kg | 1.96 ± 0.42 pg/mg wet tissue of frontal co | 1.73 ± 0.39 pg/mg wet tissue of frontal co |  |  |  |  |  |  |  |  |  |  | 
CCCc1ccc2c(c1)OC(C)(C)O2 [R = --C(CH3)2 --, R1 = H, R2 = n-Propyl, 5-n-Propyl-2,2-dimethyl-1,3-benzodioxol] |  |  |  |  | > 1500 mg/kg | > 500 mg/kg | > 3500 mg/kg | 1.15 ± 0.18 pg/mg wet tissue of frontal co | 1.51 ± 0.49 pg/mg wet tissue of frontal co |  |  |  |  |  |  |  |  |  |  | 
CCCCc1ccc(O)c(O)c1 [R = Two H, R1 = H, R2 = n-Butyl, 4-n-butylcatechol] | 8.21 ± 1.1 | 14 ± 1.33 | 59.7 ± 3 | 88.3 ± 2.47 | > 500 mg/kg | > 150 mg/kg | > 1500 mg/kg | 1.88 ± 0.46 pg/mg wet tissue of frontal co | 2.25 ± 0.33 pg/mg wet tissue of frontal co |  |  |  |  |  |  |  |  |  |  | 
CCCc1ccc2oc(=O)c(=O)oc2c1 [R = --CO.CO--, R1 = H, R2 = n-Propyl, 6-n-propyl-1,4-benzodioxine-2,3-dione] |  |  |  |  | > 1250 mg/kg | > 250 mg/kg | > 3000 mg/kg | 1.54 ± 0.20 pg/mg wet tissue of frontal co | 2.02 ± 0.47 pg/mg wet tissue of frontal co |  |  |  |  |  |  |  |  |  |  | 
CCCc1ccc(OC(C)=O)c(OC(C)=O)c1 [R = Two acetyl, R1 = H, R2 = n-Propyl, 1,2-diacetoxy-4-propylbenzene] |  |  |  |  | > 750 mg/kg | > 250 mg/kg | > 2500 mg/kg | 1.71 ± 0.28 pg/mg wet tissue of frontal co | 2.16 ± 0.46 pg/mg wet tissue of frontal co |  |  |  |  |  |  |  |  |  |  | 
CCCc1cccc(O)c1O [R = Two H, R1 = n-Propyl, R2 = H] | 9.81 ± 0.92 | 16.3 ± 2.04 | 72.9 ± 7.09 | 97 ± 9.24 |  |  |  | 2.03 ± 0.37 pg/mg wet tissue of frontal co | 2.00 ± 0.43 pg/mg wet tissue of frontal co | > 500 mg/kg | > 150 mg/kg | > 1500 mg/kg |  |  |  |  |  |  |  | 
Cc1ccc(O)c(O)c1 [R = Two H, R1 = H, R2 = Methyl, 4-Methylcatechol] | 8.91 ± 0.43 | 2.36 ± 1.9 | 80.8 ± 4.21 | 4.89 ± 1.37 | > 200 mg/kg | > 50 mg/kg | > 500 mg/kg | 2.26 ± 0.24 pg/mg wet tissue of frontal co | 1.64 ± 0.46 pg/mg wet tissue of frontal co |  |  |  | 8.77 ± 0.66 | 2.87 ± 0.54 | 9.21 ± 0.69 | 2.49 ± 0.88 | 77.3 ± 9.21 | 6.59 ± 1.34 | 106 ± 7.61 | 2.47 ± 1.22
